Patent publication US20130039887A1, “Methods of Identifying and Using Anti-Viral Compounds” (KINETA, INC., priority 2010, published 2013)

Experiments:
Huh7, MRC5 and 293 cells = experiment: MTS cytotoxicity assay in multiple cell types (Huh7, MRC5, 293); format: cell-based, human
Procedure: All lead molecules chosen for further development mediate IRF-3 nuclear translocation and have antiviral activity against HCV. All induce dose-dependent activation of ISG expression in the absence of nonspecific promoter (β-actin) induction. To analyze in vitro cytotoxicity of lead agonist molecules, an MTS assay was conducted using multiple cell types (Huh7, human liver; MRC5, lung fibroblast; and 293, […]).

[1] = system: Influenza A virus WSN strain (A/WSN/33); experiment: Influenza A virus nucleoprotein ELISA / Western blot assay; format: cell-based; conditions: ELISA and Western blot
ISG54 promoter = experiment: ISG54-luciferase reporter assay in Huh7-ISG54-Luc cells; format: cell-based, human; conditions: dose response (5-50 μM), 24 h
actin promoter = experiment: Actin promoter control cell line counter screen (β-actin-LUC); format: cell-based, human
HCV2a virus = experiment: HCV immunofluorescence antiviral / focus-forming assay in Huh7 cells; format: cell-based, Hepatitis C virus; conditions: Huh7 cells pre-treated 24 h (compounds 10 μM), HCV2a MOI 0.1-0.5
Procedure: HCV immunofluorescence antiviral assay: Huh7 cells are seeded on a 96-well plate at a density of 5×10^3 cells per well and grown for 24 hours. Compounds that have been diluted to 10 μM in media and contain a final concentration of 0.5% DMSO are added to each well and grown another 24 hours. The compound media solution is removed from the plate and stored in a clean tissue culture dish. Cell monolayers are washed with PBS and HCV2a virus is added at the stated MOI. Virus is incubated for 2-4 hours and then removed, the monolayers are washed with PBS and the compound solutions are replaced into each well.
The cells are grown overnight and then cells are fixed and stained for HCV proteins. All buffers and reagents used are from the Cellomics staining kits described above. HCV specific antibodies from either commercial sources or primary patient serum can be used to detect HCV infected cells in culture. […] The number of infected cells is counted and representative images are saved. […]
To measure levels of HCV infection with or without drug treatment the cells were stained for HCV specific staining using serum and a FITC conjugated fluorescent secondary antibody. […] Using an inverted fluorescent microscope the number of infected cells is quantitated (shown—FIG. 9 bottom panel). […]

| Compound | cytotoxicity (MTS assay) (Huh7, MRC5 and 293 cells) | anti-influenza activity (viral nucleoprotein levels) [1] | induction of the ISG54-luciferase reporter (ISG54 promoter) | nonspecific promoter induction (β-actin-LUC) (actin promoter) | HCV infection (infected cells stained for HCV proteins, IF assay) (HCV2a virus) |
| --- | --- | --- | --- | --- | --- |
| NS(=O)(=O)c1ccc(-c2ccc(/C=C3/SC(=S)N(Cc4ccco4)C3=O)o2)cc1 [KIN300] | absence of cytotoxicity | efficient, dose-dependent anti-influenza activity | dose-dependent induction | absence of nonspecific promoter induction | – |
| N#Cc1c(-c2ccccc2)cc(-c2ccccc2)nc1SCC(=O)N1CCOCC1 [KIN400] | – | efficient, dose-dependent anti-influenza activity | – | – | – |
| COc1ccc(NC(=O)Cn2c(=O)n(Cc3ccco3)c(=O)c3oc4ccccc4c32)c(OC)c1 [KIN500] | – | efficient, dose-dependent anti-influenza activity | – | – | – |
| Interferon | – | – | – | – | completely blocks HCV infection |
